{
  "source": "patent US9822128B1",
  "about": "“Substituted spirooxindoles” (KING SAUD UNIVERSITY, priority 2017, dated 2017)",
  "key": {"PC-3": {"system": "PC-3", "test": "MTT cytotoxicity assay, prostate carcinoma cells", "format": "cell-based, human", "details": "for IC50: Homo sapiens, PC-3, MTT, 48 hrs incubation", "description": "(§1) The cytotoxic activity of the compounds was tested against different mammalian cancer cells, prostate carcinoma cells (PC-3), hepatocellular carcinoma (HepG2) and colon cancer cells (HCT-116) and against African green monkey kidney cell line (Vero-B). The cell lines were obtained from American Type Culture Collection (ATCC). The cells were cultivated at 37° C. and 10% CO2 in DMEM (Lonza, 12-604F) medium supplemented with 10% fetal bovine serum (FBS, Lonza, Cat. No. 14-801E), 100 IU/ml penicillin and 100 μg/ml streptomycin (Lonza, 17-602E). Cisplatin (cis-diamineplatinum (II) dichloride) was used as a positive control and was obtained from Sigma then dissolved in 0.9% saline then stored as 8 mM stock solution at −20° C. The synthesized compounds were solubilized in DMSO and stored at −20° C. 0.5% crystal violet was prepared in Methanol and was used to stain the viable cells (Feoktistova, Geserick et al. 2016). Crystal violet binds to proteins and DNA in the adherent and viable cells so the stain is an indicator for the viability of the treated cells. The viability of the cells were quantified by using MTT reagent (3-(4,5-dimethylthiazol-2-yl)-2,5-diphenyl tetrazolium bromide), which measure the activity of mitochondrial dehydrogenase in the viable cells (Slater, Sawyer et al. 1963, Mosmann 1983).\n(§2) Cytotoxicity was further assayed as follows. The cells were seeded in 96-well plate as 5*10^4 cells/mL (100 μL/well). A serial dilutions of tested compounds or cisplatin (100, 30, 10, 3.3, 1.1 or 0.37 μM) was added after overnight incubation of the cells at 37° C. and 5% CO2. DMSO was used as a control (0.1%). The cells were incubated for 48 hrs. After that, 15 μl of MTT (5 mg/mL PBS) was added to each well and incubated for another 4 hours. The formazan crystals were solubilized by 100 μL acidified SDS solution (10% SDS/0.01 M HCl). The absorbance was measured after 14 hours of incubation at 37° C. and 5% CO2 at 570 nm by Biotech plate reader. Each experiment was repeated three times and standard deviation was calculated (±). IC50% was calculated as the concentration that cause 50% inhibition for cell growth. The growth of the cells were monitored and the images were acquired by Gx microscopes (GXMGXD202 Inverted Microscope) (10× Eyepiece) after staining with crystal violet."}, "HCT-116": {"system": "HCT-116", "test": "MTT cytotoxicity assay, colon cancer cells", "format": "cell-based, human", "details": "for IC50: Homo sapiens, HCT-116, MTT, 48 hrs incubation", "description": "as §1, §2"}, "HepG2": {"system": "HepG2", "test": "MTT cytotoxicity assay, hepatocellular carcinoma cells", "format": "cell-based, human", "details": "for IC50: Homo sapiens, HepG2, MTT, 48 hrs incubation", "description": "as §1, §2"}, "Vero-B": {"system": "Vero-B", "test": "MTT cytotoxicity assay, normal kidney cell line", "format": "cell-based, African green monkey", "details": "Chlorocebus sabaeus, Vero B; Table 1; MTT, 48 hrs incubation; read-out: VERO-B (IC50% μM)", "description": "as §1, §2"}},
  "note": "Like-named read-outs stand apart in the source and are kept apart here.",
  "data": [
    {"smiles": "O=C(/C=C/c1ccc(F)cc1)[C@H]1[C@H](c2ccc(F)cc2)[C@H]2CSCN2[C@]12C(=O)Nc1ccc(Br)cc12", "note": "[Compound 4p, (3R,6′S,7′R,7a′S)-5-bromo-7′-(4-fluorophenyl)-6′-((E)-3-(4-fluorophenyl)acryloyl)-1′,6′,7′,7a′-tetrahydro-3′H-spiro[indoline-3,5′-pyrrolo[1,2-c]thiazol]-2-one]", "values": [
      {"measurement": "IC50", "setting": "PC-3; read-out: PC-3 (IC50% μM)", "result": "1.5 ± 0.1", "unit": "µM"},
      {"measurement": "IC50", "setting": "PC-3; read-out: PC-3 (IC50% μg/ml)", "result": 0.8, "unit": "µg/mL"},
      {"measurement": "SI", "setting": "PC-3; Selectivity Index from IC50 normal (VERO-B) and IC50 cancer (PC-3)", "result": 2},
      {"measurement": "IC50", "setting": "HCT-116; read-out: HCT-116 (IC50% μM)", "result": "3.5 ± 0.3", "unit": "µM"},
      {"measurement": "IC50", "setting": "HCT-116; read-out: HCT-116 (IC50% μg/ml)", "result": 2, "unit": "µg/mL"},
      {"measurement": "SI", "setting": "HCT-116; Selectivity Index from IC50 normal (VERO-B) and IC50 cancer (HCT-116)", "result": 0.9571},
      {"measurement": "IC50", "setting": "HepG2; read-out: HepG2 (IC50% μM)", "result": "0.8 ± 0.1", "unit": "µM"},
      {"measurement": "IC50", "setting": "HepG2; read-out: HepG2 (IC50% μg/ml)", "result": 0.5, "unit": "µg/mL"},
      {"measurement": "SI", "setting": "HepG2; Selectivity Index from IC50 normal (VERO-B) and IC50 cancer (HepG2)", "result": 3.75},
      {"measurement": "IC50", "setting": "Vero-B", "result": 3, "unit": "µM"}
    ]}
  ]
}
